Measurements: ChEMBL document CHEMBL3137381, “MMV Box Onchocerca lienalis screening set”

How the values were obtained:
Type in all cases: functional
[1] = tested on: Onchocerca lienalis; experiment: MMV: Percent motility assay at a compound concentration of 1.25e-5 M. Activity score legend: 3: Active, 2: Moderately active; 1: Inactive, 0: Toxic; conditions: at 12.5 µM
[2] = tested on: Onchocerca lienalis; experiment: MMV: Percent motility assay at a compound concentration of 3.1e-6 M. Activity score legend: 3: Active, 2: Moderately active; 1: Inactive, 0: Toxic; conditions: at 3.1 µM
[3] = tested on: Onchocerca lienalis; experiment: MMV: Percent motility assay at a compound concentration of 1.9e-7 M. Activity score legend: 3: Active, 2: Moderately active; 1: Inactive, 0: Toxic; conditions: at 0.19 µM
[4] = tested on: Onchocerca lienalis; experiment: MMV: Percent motility assay at a compound concentration of 7.8e-7 M. Activity score legend: 3: Active, 2: Moderately active; 1: Inactive, 0: Toxic; conditions: at 0.78 µM

Row | Compound | Motility [1] | Motility [2] | Motility [3] | Motility [4]
1 | CN1CCN(c2ccc(Nc3c4ccccc4nc4ccccc34)cc2)CC1 | 100% | 100% | 100% | 100%
2 | CCN1CCCC1CNc1[nH]cnc2c3cc(Cl)ccc3nc1-2 (stereo unspecified) | 100% | 100% | 100% | 100%
3 | C[n+]1c2ccccc2nc2ccc(NCCO)cc21 | 100% | 100% | 100% | 100%
4 | CCN(CC)CCNc1ncnc2c1[nH]c1ccc(Cl)cc12 | 100% | 100% | 100% | 100%
5 | CCOC(=O)c1cnc2ccc(CC)cc2c1O | 100% | 100% | 100% | 100%
6 | Cc1ccc(-c2cc3c(nn2)-c2ccccc2C3=O)cc1 | 100% | 100% | 100% | 100%
7 | CCN(CC)CCNc1ccnc2cc(Cl)ccc12 | 100% | 100% | 100% | 100%
8 | Cc1ccc(Nc2nc(-c3ccccn3)cs2)cc1 | 100% | 100% | 100% | 100%
9 | COc1ccc(-n2ccnc2SCC(=O)Nc2cc(C)ccc2C)c(OC)c1 | 100% | 100% | 100% | 100%
10 | CCN1CCN(Cc2ccc(NC(=O)c3cc4ccc5cccnc5c4[nH]3)cc2)CC1 | 100% | 100% | 100% | 100%
11 | CCC(C)NCC(O)(c1ccc(Cl)cc1)c1ccc(Cl)cc1 (stereo unspecified) | 100% | 100% | 100% | 100%
12 | CCC(c1ccccc1)c1nn2c(-c3cccs3)nnc2s1 (stereo unspecified) | 100% | 100% | 100% | 100%
13 | CCOc1cc2c(cc1OCC)C(c1cc(OC)c(O)cc1Cl)NCC2 (stereo unspecified) | 100% | 100% | 100% | 100%
14 | CC1CN(C(=O)c2sc3ccccc3c2Cl)CC(C)O1 (stereo unspecified) | 100% | 100% | 100% | 100%
15 | COCCNC(=O)c1ccc(OC2CCN(Cc3ccc(F)c(F)c3)CC2)c(Cl)c1 | 46.6% | 100% | 100% | 100%
16 | CN(C)c1ccc(C=Cc2nc(=O)c3ccccc3o2)cc1 | 100% | 100% | 100% | 100%
17 | OC(CNC1CCCCC1)Cn1c2ccccc2c2ccccc21 (stereo unspecified) | 60% | 100% | 100% | 100%
18 | COc1cccc(C=Cc2nc(=O)c3ccccc3o2)c1OC | 100% | 100% | 100% | 100%
19 | CCCN(CCC)CC(O)COc1ccccc1C(=O)Nc1ccccc1 (stereo unspecified) | 100% | 100% | 100% | 100%
20 | COc1ccc(C(=O)Nc2nonc2-c2ccc(OC)c(OC)c2)cc1Cl | 100% | 100% | 100% | 100%
21 | COCCN(C(=O)Cc1cccs1)C(C(=O)NCc1ccc(OC)cc1)c1ccc(C(C)C)cc1 (stereo unspecified) | 46.6% | 100% | 100% | 100%
22 | COc1ccc2c(c1)OC(O)(C(F)(F)C(F)(F)F)CC2=O (stereo unspecified) | 100% | 100% | 100% | 100%
23 | FC(F)(F)c1cccc(CNC2CCN(CCc3ccccc3)CC2)c1 | 100% | 100% | 100% | 100%
24 | Oc1ccc(Cl)cc1CNc1nc2ccccc2[nH]1 | 66.6% | 100% | 100% | 100%
25 | CCOc1cc(Cl)c(C(C)NC(=O)c2ccccc2)cc1OCC (stereo unspecified) | 100% | 100% | 100% | 100%
26 | C=CC12CCN(CC1)C(C(O)c1ccnc3ccc(OC)cc13)C2.Cl (stereo unspecified) | 100% | 100% | 100% | 100%
27 | Cc1ccc(-c2cc3nc4c(c(O)n3n2)CCCC4)cc1 | 100% | 100% | 100% | 100%

Row | Compound | Motility [1] | Motility [2] | Motility [3] | Motility [4]
28 | O=C(Nc1ccc(Cl)cc1)N1CCN(c2ccc3nncn3n2)CC1 | 100% | 100% | 100% | 100%
29 | c1ccc2cc3c(Nc4ccc(N5CCOCC5)cc4)ccnc3cc2c1 | 100% | 100% | 100% | 100%
30 | Cc1cc(C)c2c(c1)OCN(Cc1ccccc1Cl)C2 | 100% | 100% | 100% | 100%
31 | COc1ccccc1NC1=C(N2CCCCC2)C(=O)c2ccccc2C1=O | 100% | 100% | 100% | 100%
32 | CCOC(=O)c1cn(CC)c2cc(N3CCCCC3)c(F)cc2c1=O | 100% | 100% | 100% | 100%
33 | CCCc1cc(O)c2c3c(c(=O)oc2c1)CN(C)CC3 | 66.6% | 100% | 100% | 100%
34 | Cc1cc(NC(=O)C2c3ccccc3C(=O)N(CC(C)C)C2c2cccs2)no1 (stereo unspecified) | 100% | 100% | 100% | 100%
35 | CCn1c(SCC(=O)Nc2cc(C(F)(F)F)ccc2Cl)nc2ccccc2c1=O | 100% | 100% | 100% | 100%
36 | Cc1ccc(Cn2c(N3CCC(C(=O)NCc4cccs4)CC3)nc3ccccc32)cc1 | 100% | 100% | 100% | 100%
37 | O=C(Nc1ccc(Cl)cc1C(=O)Nc1ccncc1)c1ccc(Cl)cc1Cl | 100% | 100% | 100% | 100%
38 | CCOc1ccc(-c2nonc2NC(=O)c2cccc(C)c2)cc1OCC | 100% | 100% | 100% | 100%
39 | CC(C)(C)CC(C)(C)NCC(O)COc1ccc2c(c1)CCC2.Cl (stereo unspecified) | 100% | 100% | 100% | 100%
40 | CCOc1ccc(/C=C/c2nc(=O)c3ccccc3o2)cc1 | 100% | 100% | 100% | 100%
41 | O=C(Nc1nc(-c2ccccn2)cs1)c1ccccc1Br | 0% | 60% | 100% | 100%
42 | CC(O)(c1ccc(Cl)cc1)C(CN1CCCCC1)c1ccccc1.Cl (stereo unspecified) | 66.6% | 100% | 100% | 100%
43 | CCCCc1ccc(NS(=O)(=O)c2cc3c4c(c2)CCN4C(=O)CC3)cc1 | 100% | 100% | 100% | 100%
44 | CCOc1ccccc1CNC(=O)C1c2ccccc2C(=O)N(CC(C)C)C1c1cccs1 (stereo unspecified) | 100% | 100% | 100% | 100%
45 | COc1ccc(-c2nc3cc(Cc4ccc5[nH]c(-c6ccc(OC)cc6)nc5c4)ccc3[nH]2)cc1 | 80% | 100% | 100% | 100%
46 | CCOC(=O)c1ccc2nc(-c3ccccc3)cc(O)c2c1 | 100% | 100% | 100% | 100%
47 | Cc1cc(Nc2ccc(Cl)cc2)n2nc(C(F)(F)F)nc2n1 | 100% | 100% | 100% | 100%
48 | CCCCCCOC(=O)C1=C(C)NC(=O)NC1c1ccccc1F (stereo unspecified) | 6% | 100% | 100% | 100%
49 | COc1ccc(C2Sc3ccccc3N=C3C2=C(O)c2ccccc23)cc1 (stereo unspecified) | 100% | 100% | 100% | 100%
50 | Cc1ccc(N2C3c4ccccc4N(S(=O)(=O)c4ccc(C)cc4)C2c2ccccc2N3S(=O)(=O)c2ccc(C)cc2)cc1 | 100% | 100% | 100% | 100%
51 | Cc1ccc(Nc2nc(NCCO)c3ccccc3n2)cc1C | 33.33% | 100% | 100% | 100%
52 | CC1CCCCN1CCCNC(=O)c1ccc2c(c1)sc1nc(-c3ccc(F)cc3)cn12 (stereo unspecified) | 80% | 100% | 100% | 100%
53 | COc1ccc(NC(=O)C2c3ccccc3C(=O)N(CC(C)C)C2c2cccs2)cc1 (stereo unspecified) | 100% | 100% | 100% | 100%
54 | c1ccc(Cn2c(N=Nc3c(Nc4ccccc4)ccc4ccccc34)nc3ccccc32)cc1 | 100% | 100% | 100% | 100%
